Assay results taken from patent US20150374676A1, “HELICASE-PRIMASE INHIBITORS FOR USE IN A METHOD OF TREATING ALZHEIMER'S DISEASE” (AICURIS GMBH & CO. KG, priority 2013, published 2015).
Where two headings read alike, the source gives them in different places.

Experiment: Single-dose escalation pharmacokinetics in volunteers
Assay type: in vivo, human
Conditions: human, mean, n = 6; for Ae: excreted in urine; for AUC(0-inf) / Cmax: free base in plasma
Source text: Exposure of the free base form of N-[5-(aminosulfonyl)-4-methyl-1,3-thiazol-2-yl]-N-methyl-2-[4-(2-pyridinyl)-phenyl]acetamide to the human body may be measured by high pressure liquid chromatography (HPLC) by looking at different pharmacokinetic parameters in suitable bodily fluids such as for instance blood plasma and urine, the most common parameters being the Cmax, the so-called area under the curve (AUC), and the terminal half-life (t1/2Z). Hereto, the person skilled in the art understands that said parameters are determined by using adequate bioanalytical methods with adequate sensitivity, specificity, ruggedness, stability and repeatability, as for instance a qualified liquid chromatography triple quad mass spectrometry based method coupled with a suitable extraction method for the separation of the analyte from, e.g. the blood plasma.
Therefore, pharmacokinetic studies in human subjects were undertaken following both single and multiple dose administrations of the crystalline mono mesylate monohydrate salt of N-[5-(aminosulfonyl)-4-methyl-1,3-thiazol-2-yl]-N-methyl-2-[4-(2-pyridinyl)phenyl]acetamide, wherein the particle size distribution is preferably defined by d(0.1) from 2 to 100 μm, d(0.5) from 30 to 210 μm and d(0.9) from 70 to 400 μm with a specific surface area of the particles less than 1.0 m^2/g, and more preferably defined by d(0.1) from 10 to 75 μm, d(0.5) from 100 to 175 μm, d(0.9) from 200 to 350 μm with a specific surface area of the particles less than 0.3 m^2/g.
Single oral doses of the crystalline mono mesylate monohydrate salt of N-[5-(aminosulfonyl)-4methyl1,3thiazol-2-yl]-N-methyl-2-[4-(2-pyridinyl)phenyl]acetamide using the formulations in accordance with example a and Table a, were administered to six volunteers per dose step. The overall shape of the plasma concentrations vs. time profiles were similar across all doses applied (see FIG. 4 and FIG. 6).
Table b: Pharmacokinetic parameters after ascending single oral doses of crystalline mono mesylate monohydrate salt of N-[5-(aminosulfonyl)-4-methyl-1,3-thiazol-2-yl]-N-methyl-2-[4-(2-pyridinyl)phenyl]acetamide in the formulations in accordance with table a wherein the particle size distribution is preferably defined by d(0.1) from 2 to 100 μm, d(0.5) from 30 to 210 μm and d(0.9) from 70 to 400 μm with a specific surface area of the particles less than 1.0 m^2/g, and more preferably defined by d(0.1) from 10 to 75 μm, d(0.5) from 100 to 175 μm, d(0.9) from 200 to 350 μm with a specific surface area of the particles less than 0.3 m^2/g.
AUC0-∞: Area under the analyte vs. time concentration from time of administration up to infinity, calculated as
wherein AUC0-last is defined as the area under the analyte vs. time concentration up to time of the last qualifiable concentration, calculated by linear up/log down summation and Clast is defined as last quantifiable observed analyte concentration. λz is the apparent terminal elimination rate constant, determined by linear regression of terminal points of In-linear analyte concentration-time curve.
Cmax is the maximal observed analyte concentration and tmax is the time to reach Cmax;
t1/2z is defined as the apparent terminal elimination half-life, calculated as
MRT: Mean Residence Time; calculated AUMC divided by AUC, wherein AUMC is the area under the first moment of the concentration-time curve from zero up to ∞ with extrapolation of the terminal phase and AUC is the area under the concentration-time curve from zero up to ∞ with extrapolation of the terminal phase.
CL/F refers to the clearance after oral administration of a drug and Ae refers to the amount of drug excreted in the urine.

[1] = single oral dose 5 mg free base equivalent
[2] = single oral dose 10 mg free base equivalent
[3] = single oral dose 20 mg free base equivalent
[4] = single oral dose 40 mg free base equivalent
[5] = single oral dose 80 mg free base equivalent, females
[6] = single oral dose 80 mg free base equivalent, males
[7] = single oral dose 160 mg free base equivalent
[8] = single oral dose 240 mg free base equivalent
[9] = single oral dose 320 mg free base equivalent
[10] = single oral dose 400 mg free base equivalent
[11] = single oral dose 480 mg free base equivalent
[12] = single oral dose 600 mg free base equivalent

SMILES: CS(=O)(=O)O.Cc1nc(N(C)C(=O)Cc2ccc(-c3ccccn3)cc2)sc1S(N)(=O)=O [mono mesylate monohydrate salt, N-[5-(aminosulfonyl)-4-methyl-1,3-thiazol-2-yl]-N-methyl-2-[4-(2-pyridinyl)-phenyl]acetamide mono methanesulfonic acid monohydrate]
- CL/F [1]: 0.89 L/h
- t1/2z [1]: 80 h
- Ae [1]: 0 % of dose
- AUC(0-inf) [1]: 5.8 µg·h/mL
- Cmax (single oral dose 5 mg free base equivalent, read-out: Cmax): 74 ng/mL
- CL/F [2]: 0.87 L/h
- t1/2z [2]: 85 h
- Ae [2]: 0 % of dose
- AUC(0-inf) [2]: 11.7 µg·h/mL
- Cmax (single oral dose 10 mg free base equivalent, read-out: Cmax): 170 ng/mL
- CL/F [3]: 1.10 L/h
- t1/2z [3]: 76 h
- Ae [3]: 0 % of dose
- AUC(0-inf) [3]: 18.5 µg·h/mL
- Cmax (single oral dose 20 mg free base equivalent, read-out: Cmax): 234 ng/mL
- CL/F [4]: 1.00 L/h
- t1/2z [4]: 72 h
- Ae [4]: 0 % of dose
- AUC(0-inf) [4]: 40.7 µg·h/mL
- Cmax (single oral dose 40 mg free base equivalent, read-out: Cmax): 608 ng/mL
- CL/F [5]: 0.85 L/h
- t1/2z [5]: 58 h
- Ae [5]: 0.31 % of dose
- CL/F [6]: 0.94 L/h
- t1/2z [6]: 74 h
- Ae [6]: 0.16 % of dose
- CL/F [7]: 1.28 L/h
- t1/2z [7]: 63 h
- Ae [7]: 0.15 % of dose
- AUC(0-inf) [7]: 131 µg·h/mL
- Cmax [7]: 2613 ng/mL
- CL/F [8]: 1.15 L/h
- t1/2z [8]: 64 h
- Ae [8]: 0.21 % of dose
- AUC(0-inf) [8]: 217 µg·h/mL
- Cmax [8]: 3600 ng/mL
- CL/F [9]: 1.47 L/h
- t1/2z [9]: 57 h
- Ae [9]: 0.16 % of dose
- AUC(0-inf) [9]: 241 µg·h/mL
- Cmax [9]: 4648 ng/mL
- CL/F [10]: 1.31 L/h
- t1/2z [10]: 57 h
- Ae [10]: 0.15 % of dose
- AUC(0-inf) [10]: 320 µg·h/mL
- Cmax [10]: 6926 ng/mL
- CL/F [11]: 1.33 L/h
- t1/2z [11]: 53 h
- Ae [11]: 0.26 % of dose
- AUC(0-inf) [11]: 387 µg·h/mL
- Cmax [11]: 6921 ng/mL
- CL/F [12]: 2.00 L/h
- t1/2z [12]: 52 h
- Ae [12]: 0.09 % of dose
- AUC(0-inf) [12]: 321 µg·h/mL
- Cmax (single oral dose 600 mg free base equivalent, read-out: Cmax): 6440 ng/mL
